Results reported in ChEMBL document CHEMBL1138535, “Comparison of beta-lactam and macrolide combination therapy versus fluoroquinolone monotherapy in hospitalized Veterans Affairs patients with community-acquired pneumonia” (2007).

Experiments:
Format in all cases: functional
[1] = tested on: Homo sapiens; assay: Protection against community-acquired pneumonia in patient with pneumonia severity index-5 assessed as mortality at 500 mg administered once daily for 30 days
[2] = tested on: Homo sapiens; assay: Protection against community-acquired pneumonia in patient with pneumonia severity index-4 assessed as mortality at 500 mg administered once daily for 30 days
[3] = tested on: Homo sapiens; assay: Protection against community-acquired pneumonia in patient with pneumonia severity index-3 assessed as mortality at 500 mg administered once daily for 30 days
[4] = tested on: Homo sapiens; assay: Protection against community-acquired pneumonia in patient with pneumonia severity index-2 assessed as mortality at 500 mg administered once daily for 30 days
[5] = tested on: Homo sapiens; assay: Protection against community-acquired pneumonia in patient with pneumonia severity index-2 assessed as mortality at 500 mg administered once daily for 14 days
[6] = tested on: Homo sapiens; assay: Protection against community-acquired pneumonia in patient with pneumonia severity index-3 assessed as mortality at 500 mg administered once daily for 14 days
[7] = tested on: Homo sapiens; assay: Protection against community-acquired pneumonia in patient with pneumonia severity index-4 assessed as mortality at 500 mg administered once daily for 14 days
[8] = tested on: Homo sapiens; assay: Protection against community-acquired pneumonia in patient with pneumonia severity index-5 assessed as mortality at 500 mg administered once daily for 14 days

C[C@H]1COc2c(N3CCN(C)CC3)c(F)cc3c(=O)c(C(=O)O)cn1c23.C[C@H]1COc2c(N3CCN(C)CC3)c(F)cc3c(=O)c(C(=O)O)cn1c23.O [LEVOFLOXACIN]
Activity [1]: 36.6%
Activity [2]: 5%
Activity [3]: 6.3%
Activity [4]: 0%
Activity [5]: 0%
Activity [6]: 2.1%
Activity [7]: 4.2%
Activity [8]: 26.8%
